Laboratory results reported in paper PMC5340293 (Bioorganic & medicinal chemistry letters, 2016).
Read-outs that look alike come from different tables or passages of the source.

What was measured:
PAR4 [1] = biological target: T1, PAR4 (Homo sapiens, UniProt Q96RI0); assay: Progressive fold-shift; type: cell-based; settings: for mode of PAR4 inhibition: progressive fold-shift, parallel right-ward shift of CRC
T1 sequence (Q96RI0 18-385): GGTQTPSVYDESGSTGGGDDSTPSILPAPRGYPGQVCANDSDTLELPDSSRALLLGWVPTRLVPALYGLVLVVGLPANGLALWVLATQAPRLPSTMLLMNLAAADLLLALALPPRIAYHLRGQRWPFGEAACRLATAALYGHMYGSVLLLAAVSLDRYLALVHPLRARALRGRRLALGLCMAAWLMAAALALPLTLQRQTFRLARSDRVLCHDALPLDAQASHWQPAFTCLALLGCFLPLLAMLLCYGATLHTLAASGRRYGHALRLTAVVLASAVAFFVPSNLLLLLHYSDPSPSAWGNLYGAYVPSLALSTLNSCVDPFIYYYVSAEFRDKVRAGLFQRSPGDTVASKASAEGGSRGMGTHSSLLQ

PAR4 [2] = biological target: T1, PAR4; assay: PAR4-AP stimulated PAC-1 binding, flow cytometry; type: cell-based
PAR4 [3] = biological target: T1, PAR4; settings: cited from earlier work
collagen receptor = assay: Platelet aggregation, collagen I activation; type: cell-based, human; settings: 10 μg/ml collagen I; antagonist at micromolar concentrations
PAR4 [4] = biological target: T2, PAR4 (Homo sapiens, UniProt Q96RI0); assay: γ-thrombin stimulated PAC-1 binding, flow cytometry; type: cell-based
T2 sequence (Q96RI0 48-385 limits assumed): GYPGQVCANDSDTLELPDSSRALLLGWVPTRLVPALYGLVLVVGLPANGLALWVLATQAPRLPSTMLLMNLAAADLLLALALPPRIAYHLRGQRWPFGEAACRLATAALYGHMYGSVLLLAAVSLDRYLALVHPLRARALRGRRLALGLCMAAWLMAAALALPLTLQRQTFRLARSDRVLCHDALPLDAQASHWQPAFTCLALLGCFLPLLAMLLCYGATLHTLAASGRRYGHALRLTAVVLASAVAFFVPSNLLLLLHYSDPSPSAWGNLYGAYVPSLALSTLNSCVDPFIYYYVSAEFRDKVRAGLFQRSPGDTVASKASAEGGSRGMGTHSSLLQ

Row | Schild EC50 log DR-1 versus log [antagonist] plot slope (PAR4 [1]) | mode of PAR4 inhibition (PAR4 [1]) | Structure (SMILES) | other results
1 | 0.95±0.09 | competitive | COc1nn2cc(-c3ccc(C(F)(F)F)cc3)nc2s1 [4c] | 
2 | 1.09±1.3 | competitive | COc1nn2cc(-c3ccc(Cl)cc3)nc2s1 [4k] | 
3 | 0.94±0.08 | competitive | COc1nn2cc(-c3ccc(OC(F)(F)F)cc3)nc2s1 [4n] | 
4 |  |  | CNc1nn2cc(-c3c(F)cccc3F)nc2s1 [NHCH3 derivative] | PAR4 inhibitory activity (PAR4 [2]; result in words): inactive
5 |  |  | COc1cc(OCc2csc(-c3ccccc3)n2)c2cc(-c3cn4nc(OC)sc4n3)oc2c1 [compound 2] | mode of PAR4 inhibition (PAR4 [3]): mixed competitive/non-competitive
6 |  |  | COc1nn2cc(-c3cc4ccccc4o3)nc2s1 [compound 3, 6-(benzofuran-2-yl)-2-methoxyimidazo[2,1-b][1,3,4]thiadiazole] | off-target effects on the collagen receptor (collagen I induced aggregation) (collagen receptor): devoid
7 |  |  | COc1nn2cc(-c3cc4cc(OC(F)(F)F)ccc4n3C)nc2s1 [compound 5] | off-target effects on the collagen receptor (collagen I induced aggregation) (collagen receptor): eliminated; fold more potent than 1 against AP (PAR4 [2]): ~ 9 fold; γ-thrombin ligand efficiency (LE) (PAR4 [4]): 0.33
